Measured values: patent US20120121591A1 (priority 2009, published 2012)
Like-named read-outs stand apart in the source and are kept apart here.

What was measured:
Format in all cases: cell-based
hKv1.3 = hKv1.3 (Homo sapiens, UniProt P22001); test: cell-based; conditions: Kv1.3 (IWQ) IC50 (nM, Avg)
[1] = system: IFN-g secretion from T cells in human whole blood
[2] = system: IL-2 secretion from T cells in human whole blood; conditions: read-out: WB (IL-2) IC50 (nM, Avg)
[3] = read-out: WB (IFNg) IC50 (nM, Avg)

Sequence of hKv1.3 (P22001 whole entry): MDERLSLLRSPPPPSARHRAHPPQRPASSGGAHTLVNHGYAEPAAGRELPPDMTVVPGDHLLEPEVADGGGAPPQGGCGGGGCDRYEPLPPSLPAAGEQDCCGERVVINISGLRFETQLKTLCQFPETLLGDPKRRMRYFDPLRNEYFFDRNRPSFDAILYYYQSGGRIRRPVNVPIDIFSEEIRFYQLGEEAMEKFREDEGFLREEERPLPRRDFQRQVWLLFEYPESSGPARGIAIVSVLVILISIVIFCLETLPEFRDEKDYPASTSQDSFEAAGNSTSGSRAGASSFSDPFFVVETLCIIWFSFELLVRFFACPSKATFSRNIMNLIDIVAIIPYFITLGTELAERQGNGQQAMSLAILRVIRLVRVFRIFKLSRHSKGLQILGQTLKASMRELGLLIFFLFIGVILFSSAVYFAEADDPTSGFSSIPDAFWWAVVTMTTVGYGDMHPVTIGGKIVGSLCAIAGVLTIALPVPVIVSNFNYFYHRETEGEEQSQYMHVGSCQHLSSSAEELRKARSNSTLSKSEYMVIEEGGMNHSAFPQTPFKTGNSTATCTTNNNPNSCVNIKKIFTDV

| SMILES | IC50 (hKv1.3) | IC50 [1, 3] | IC50 [2] | IC50 ([1]; read-out: WB (IFNg) IC5- (nM, Avg)) |
| --- | --- | --- | --- | --- |
| CC[C@H](C)[C@@H]1NC(=O)[C@@H](NC(=O)[C@H](CO)NC(=O)[C@@H](N)CCCNC(=N)N)CSSC[C@@H](C(=O)O)NC(=O)[C@H]([C@@H](C)O)NC(=O)CNC(=O)[C@@H]2CSSC[C@@H]3NC(=O)[C@H](CCC(N)=O)NC(=O)[C@H](Cc4ccccc4)NC(=O)[C@H](C)NC(=O)[C@H]([C@@H](C)O)NC(=O)[C@H](CSSC[C@H](NC(=O)[C@H](Cc4ccccc4)NC(=O)[C@H](CO)NC(=O)[C@H](CC(C)C)NC(=O)[C@H](CCCNC(=N)N)NC(=O)[C@H](CCCNC(=N)N)NC(=O)[C@H](CCCCN)NC(=O)[C@H](CCSC)NC(=O)[C@H](CO)NC(=O)[C@H](Cc4cnc[nH]4)NC(=O)[C@H](CCCCN)NC3=O)C(=O)N[C@@H](CCCNC(=N)N)C(=O)N[C@@H](CCCCN)C(=O)N[C@@H]([C@@H](C)O)C(=O)N2)NC(=O)[C@H](CCCNC(=N)N)NC(=O)[C@H](CO)NC(=O)[C@H](CCCCN)NC(=O)[C@@H]2CCCN2C(=O)[C@H]([C@@H](C)CC)NC(=O)[C@H]([C@@H](C)O)NC(=O)[C@H](CC(=O)O)NC1=O [[Arg23]ShK] | 0.154 nM | – | – | – |
| CC[C@H](C)[C@@H]1NC(=O)[C@H]([C@@H](C)O)NC(=O)[C@H](CC(=O)O)NC(=O)[C@H](CCCNC(=N)N)NC(=O)[C@@H](NC(=O)[C@H](CO)NC(=O)[C@@H](N)CCCNC(=N)N)CSSC[C@@H](C(=O)O)NC(=O)[C@H]([C@@H](C)O)NC(=O)CNC(=O)[C@@H]2CSSC[C@@H]3NC(=O)[C@H](CCC(N)=O)NC(=O)[C@H](Cc4ccccc4)NC(=O)[C@H](C)NC(=O)[C@H]([C@@H](C)O)NC(=O)[C@H](CSSC[C@H](NC(=O)[C@H](Cc4ccccc4)NC(=O)[C@H](CO)NC(=O)[C@H](CC(C)C)NC(=O)[C@H](CCCNC(=N)N)NC(=O)[C@H](Cc4ccc(O)cc4)NC(=O)[C@H](CCCCN)NC(=O)[C@H](CCSC)NC(=O)[C@H](CO)NC(=O)[C@H](Cc4c[nH]cn4)NC(=O)[C@H](CCCCN)NC3=O)C(=O)N[C@@H](CCCNC(=N)N)C(=O)N[C@@H](CCCCN)C(=O)N[C@@H]([C@@H](C)O)C(=O)N2)NC(=O)[C@H](CCCNC(=N)N)NC(=O)[C@H](CO)NC(=O)[C@H](CCCCN)NC(=O)[C@@H]2CCCN2C1=O [[Arg4]ShK] | – | 0.081 nM | 0.051 nM | – |
| CC[C@H](C)[C@@H]1NC(=O)[C@@H](NC(=O)[C@H](CO)NC(=O)[C@@H](N)CCCNC(=N)N)CSSC[C@@H](C(=O)O)NC(=O)[C@H]([C@@H](C)O)NC(=O)CNC(=O)[C@@H]2CSSC[C@@H]3NC(=O)[C@H](CCC(N)=O)NC(=O)[C@H](Cc4ccccc4)NC(=O)[C@H](CCC(=O)O)NC(=O)[C@H]([C@@H](C)O)NC(=O)[C@H](CSSC[C@H](NC(=O)[C@H](Cc4ccccc4)NC(=O)[C@H](CO)NC(=O)[C@H](CC(C)C)NC(=O)[C@H](CCCNC(=N)N)NC(=O)[C@H](Cc4ccc(O)cc4)NC(=O)[C@H](CCCCN)NC(=O)[C@H](CCSC)NC(=O)[C@H](CO)NC(=O)[C@H](Cc4c[nH]cn4)NC(=O)[C@H](CCCCN)NC3=O)C(=O)N[C@@H](CCCNC(=N)N)C(=O)N[C@@H](CCCCN)C(=O)N[C@@H]([C@@H](C)O)C(=O)N2)NC(=O)[C@H](CCCNC(=N)N)NC(=O)[C@H](CO)NC(=O)[C@H](CCCCN)NC(=O)[C@@H]2CCCN2C(=O)[C@H]([C@@H](C)CC)NC(=O)[C@H]([C@@H](C)O)NC(=O)[C@H](CC(=O)O)NC1=O [[Glu14]ShK] | – | – | 0.035 nM | 0.132 nM |
| CCCC[C@@H]1NC(=O)[C@H](CO)NC(=O)[C@H](Cc2c[nH]cn2)NC(=O)[C@H](CCC(=O)O)NC(=O)[C@@H]2CSSC[C@@H]3NC(=O)[C@H]([C@@H](C)O)NC(=O)[C@H](CCCNC(=N)N)NC(=O)[C@H](CCCNC(=N)N)NC(=O)[C@H](CSSC[C@H](NC(=O)[C@H](CCCNC(=N)N)NC(=O)[C@H](CO)NC(=O)[C@H](CCCCN)NC(=O)[C@@H]4CCCN4C(=O)[C@H]([C@@H](C)CC)NC(=O)[C@H]([C@@H](C)O)NC(=O)[C@H](CC(=O)O)NC(=O)[C@H](CCC(=O)O)NC(=O)[C@@H](NC(=O)[C@H](CO)NC(=O)[C@@H](N)CCCNC(=N)N)CSSC[C@@H](C(N)=O)NC(=O)[C@H]([C@@H](C)O)NC(=O)CNC3=O)C(=O)N[C@@H]([C@@H](C)O)C(=O)N[C@@H](C)C(=O)N[C@@H](Cc3ccccc3)C(=O)N[C@@H](CCCCN)C(=O)N2)NC(=O)[C@H](Cc2ccccc2)NC(=O)[C@H](CO)NC(=O)[C@H](CC(C)C)NC(=O)[C@H](CCCNC(=N)N)NC(=O)[C@H](Cc2ccc(O)cc2)NC(=O)[C@H](CCCCN)NC1=O [[Glu4,18, Lys16,Nle21, Arg30]ShK-amide] | – | 1.99 nM | 0.97 nM | – |
| CC[C@H](C)[C@@H]1NC(=O)[C@@H](NC(=O)[C@H](CO)NC(=O)[C@@H](N)CCCNC(=N)N)CSSC[C@@H](C(=O)O)NC(=O)[C@H]([C@@H](C)O)NC(=O)CNC(=O)[C@@H]2CSSC[C@@H]3NC(=O)[C@H](CCCCN)NC(=O)[C@H](Cc4ccccc4)NC(=O)[C@H](C)NC(=O)[C@H]([C@@H](C)O)NC(=O)[C@H](CSSC[C@H](NC(=O)[C@H](Cc4cccc5ccccc45)NC(=O)[C@H](CO)NC(=O)[C@H](CC(C)C)NC(=O)[C@H](CCCNC(=N)N)NC(=O)[C@H](Cc4ccc(O)cc4)NC(=O)[C@H](CCCCN)NC(=O)[C@H](CCSC)NC(=O)[C@H](CO)NC(=O)[C@H](Cc4c[nH]cn4)NC(=O)[C@H](CCCCN)NC3=O)C(=O)N[C@@H](CCCCN)C(=O)N[C@@H](CCCNC(=N)N)C(=O)N[C@@H]([C@@H](C)O)C(=O)N2)NC(=O)[C@H](CCCNC(=N)N)NC(=O)[C@H](CO)NC(=O)[C@H](CCCCN)NC(=O)[C@@H]2CCCN2C(=O)[C@H]([C@@H](C)CC)NC(=O)[C@H]([C@@H](C)O)NC(=O)[C@H](CC(=O)O)NC1=O [[Lys16,29; 1-Na127;Arg30]ShK] | – | 3.83 nM | 3.37 nM | – |
| CC[C@H](C)[C@@H]1NC(=O)[C@@H](NC(=O)[C@H](CO)NC(=O)[C@@H](N)CCCNC(=N)N)CSSC[C@@H](C(=O)O)NC(=O)[C@H]([C@@H](C)O)NC(=O)CNC(=O)[C@@H]2CSSC[C@@H]3NC(=O)[C@H](CCC(N)=O)NC(=O)[C@H](Cc4ccccc4)NC(=O)[C@H](C)NC(=O)[C@H]([C@@H](C)O)NC(=O)[C@H](CSSC[C@H](NC(=O)[C@H](Cc4ccccc4)NC(=O)[C@H](CO)NC(=O)[C@H](CC(C)C)NC(=O)[C@H](CCCNC(=N)N)NC(=O)[C@H](Cc4ccc(O)cc4)NC(=O)[C@H](CCCCN)NC(=O)[C@H](CCSC)NC(=O)[C@H](CO)NC(=O)[C@H](Cc4c[nH]cn4)NC(=O)[C@H](CCCNC(=N)N)NC3=O)C(=O)N[C@@H](CCCNC(=N)N)C(=O)N[C@@H](CCCCN)C(=O)N[C@@H]([C@@H](C)O)C(=O)N2)NC(=O)[C@H](CCCNC(=N)N)NC(=O)[C@H](CO)NC(=O)[C@H](CCCCN)NC(=O)[C@@H]2CCCN2C(=O)[C@H]([C@@H](C)CC)NC(=O)[C@H]([C@@H](C)O)NC(=O)[C@H](CC(=O)O)NC1=O [[Arg18]ShK] | – | 0.023 nM | 0.012 nM | – |
| CC[C@H](C)[C@@H]1NC(=O)[C@@H](NC(=O)[C@H](CO)NC(=O)[C@@H](N)CCCNC(=N)N)CSSC[C@@H](C(=O)O)NC(=O)[C@H]([C@@H](C)O)NC(=O)CNC(=O)[C@@H]2CSSC[C@@H]3NC(=O)[C@H](CCC(N)=O)NC(=O)[C@H](Cc4ccccc4)NC(=O)[C@H](C)NC(=O)[C@H]([C@@H](C)O)NC(=O)[C@H](CSSC[C@H](NC(=O)[C@H](Cc4ccccc4)NC(=O)[C@H](CO)NC(=O)[C@H](CC(C)C)NC(=O)[C@H](CCCNC(=N)N)NC(=O)[C@H](Cc4ccc(O)cc4)NC(=O)[C@H](CCCCN)NC(=O)[C@H](CCSC)NC(=O)[C@H](C)NC(=O)[C@H](Cc4c[nH]cn4)NC(=O)[C@H](CCCCN)NC3=O)C(=O)N[C@@H](CCCNC(=N)N)C(=O)N[C@@H](CCCCN)C(=O)N[C@@H]([C@@H](C)O)C(=O)N2)NC(=O)[C@H](CCCNC(=N)N)NC(=O)[C@H](CO)NC(=O)[C@H](CCCCN)NC(=O)[C@@H]2CCCN2C(=O)[C@H]([C@@H](C)CC)NC(=O)[C@H]([C@@H](C)O)NC(=O)[C@H](CC(=O)O)NC1=O [[Ala20]ShK] | – | 0.825 nM | 0.3 nM | – |
| CC[C@H](C)[C@@H]1NC(=O)[C@@H](NC(=O)[C@H](CO)NC(=O)[C@@H](N)CCCNC(=N)N)CSSC[C@@H](C(=O)O)NC(=O)[C@H](CCCNC(=N)N)NC(=O)CNC(=O)[C@@H]2CSSC[C@@H]3NC(=O)[C@H](CCC(N)=O)NC(=O)[C@H](Cc4ccccc4)NC(=O)[C@H](C)NC(=O)[C@H]([C@@H](C)O)NC(=O)[C@H](CSSC[C@H](NC(=O)[C@H](Cc4ccccc4)NC(=O)[C@H](CO)NC(=O)[C@H](CC(C)C)NC(=O)[C@H](CCCNC(=N)N)NC(=O)[C@H](Cc4ccc(O)cc4)NC(=O)[C@H](CCCCN)NC(=O)[C@H](CCSC)NC(=O)[C@H](CO)NC(=O)[C@H](Cc4c[nH]cn4)NC(=O)[C@H](CCCCN)NC3=O)C(=O)N[C@@H](CCCNC(=N)N)C(=O)N[C@@H](CCCCN)C(=O)N[C@@H]([C@@H](C)O)C(=O)N2)NC(=O)[C@H](CCCNC(=N)N)NC(=O)[C@H](CO)NC(=O)[C@H](CCCCN)NC(=O)[C@@H]2CCCN2C(=O)[C@H]([C@@H](C)CC)NC(=O)[C@H]([C@@H](C)O)NC(=O)[C@H](CC(=O)O)NC1=O [[Arg34]ShK] | – | 0.486 nM | 0.418 nM | – |
| CC[C@H](C)[C@@H]1NC(=O)[C@@H](NC(=O)[C@H](CO)NC(=O)[C@@H](N)CCCNC(=N)N)CSSC[C@@H](C(=O)O)NC(=O)[C@H]([C@@H](C)O)NC(=O)CNC(=O)[C@@H]2CSSC[C@@H]3NC(=O)[C@H](C)NC(=O)[C@H](Cc4ccccc4)NC(=O)[C@H](C)NC(=O)[C@H]([C@@H](C)O)NC(=O)[C@H](CSSC[C@H](NC(=O)[C@H](Cc4ccccc4)NC(=O)[C@H](CO)NC(=O)[C@H](CC(C)C)NC(=O)[C@H](CCCNC(=N)N)NC(=O)[C@H](Cc4ccc(O)cc4)NC(=O)[C@H](CCCCN)NC(=O)[C@H](CCSC)NC(=O)[C@H](CO)NC(=O)[C@H](Cc4c[nH]cn4)NC(=O)[C@H](CCCCN)NC3=O)C(=O)N[C@@H](CCCNC(=N)N)C(=O)N[C@@H](CCCCN)C(=O)N[C@@H]([C@@H](C)O)C(=O)N2)NC(=O)[C@H](CCCNC(=N)N)NC(=O)[C@H](CO)NC(=O)[C@H](CCCCN)NC(=O)[C@@H]2CCCN2C(=O)[C@H]([C@@H](C)CC)NC(=O)[C@H]([C@@H](C)O)NC(=O)[C@H](CC(=O)O)NC1=O [[Ala16]ShK] | – | 0.078 nM | 0.058 nM | – |
